Test results from US20140030808A1, “Method for Cellular RNA Expression” (BIONTECH AG, priority 2010, published 2014).
Read-outs that look alike come from different tables or passages of the source.

Legend:
[1] = tested on: Primary human foreskin fibroblasts (BJ, CCD1079Sk, HFF); assay type: cell-based; details: for luciferase expression after transient treatment: BJ and CCD1079SK
[2] = tested on: Primary human foreskin fibroblasts (BJ, CCD1079Sk); test: GFP expression by flow cytometry (MFI) in fibroblasts electroporated with IVT RNA; assay type: cell-based
Procedure: (§1) (AB) Primary human foreskin fibroblasts from different donors and suppliers (panel A: BJ fibroblasts; panel B CCD1079Sk) and (C) MEFs were electroporated with 0.5 μg IVT RNA encoding for firefly luciferase and 1.25 μg IVT RNA encoding for enhanced GFP (eGFP). The cells were plated into […] at a density of 250000 cells/well. The cells were either left untreated or incubated with increasing amounts of C13H8N4OS (PKR-inhibitor) ranging from 0.5 μM to 2 μM as indicated in the panel legends. GFP expression was measured by flow cytometry at the indicated time points. The mean fluorescence intensity (MFI) of the transfected GFP-positive cell fractions is shown.
(§2) Transfer of IVT-RNA into cells was performed by electroporation (EP). […]
(§3) For quantification of d2eGFP and eGFP protein, cells were washed in PBS, fixed using PBS supplemented with 2% formaldehyde and analyzed by flow cytometry on a FACS Canto II flow cytometer (BD Biosciences, Heidelberg, Germany). Gating was performed on living cells and mean fluorescence intensity (MFI) of GFP expressing cell populations was quantified using FlowJo software (Tree Star, Ashland, Oreg., USA). […] Gating was performed on living CD4+ and CD8+ T-cells and GFP expression and MFI of both T-cell subpopulations was determined by flow cytometry. […]

MEFs = test: GFP expression by flow cytometry (MFI) in murine fibroblasts electroporated with IVT RNA; assay type: cell-based; details: 0.5 μM to 2 μM, mouse fibroblasts
Procedure: as §1, §2, §3

[3] = tested on: Human primary CD4 and CD8 positive T-cells; assay type: cell-based; details: 0.5 μM to 2 μM
CCD1079SK fibroblasts = test: Intracellular abundance and half-life of IVT-RNA constructs (qRT-PCR); assay type: cell-based, human
Procedure: (A) CCD1079SK fibroblasts were either mock electroporated or electroporated with IVT RNA encoding for firefly luciferase (1 μg), eGFP (1.25 μg), SV40 Large T (1.25 μg), HPV16-E6 (1.25 μg), OCT4, SOX2, KLF4, cMYC, NANOG and LIN28 (2.5 μg OCT4 and equimolar amounts for the others). Electroporations were performed in 2 mm gap cuvettes using optimized parameters for CCDs. After electroporation cells were either left untreated or incubated with 2 μM C13H8N4OS for 24 h or 48 h. After 72 h cells were harvested to extract total RNA and perform qRT-PCR analysis for the codon optimized IVT-RNA constructs OCT4 and SOX2. […] Decay of transcripts was plotted against time and difference between half-lifes (t1/2) of the construct in absence or presence of C13H8N4OS was calculated (Δt1/2=t1/2 (+C13H8N4OS)−t1/2 (−C13H8N4OS)). […]
Total cellular RNA was extracted from cells with RNeasy Mini Kit or RNeasy Micro Kit (Qiagen, Hilden, Germany), reverse transcribed with oligo-dT18 using Superscript II (Invitrogen, Carlsbad, Calif., USA), and subjected to real-time quantitative analysis on ABI PRISM 7700 Sequence Detection System instrument and software (Applied Biosystems, Foster City, Calif., USA) using the QuantiTect SYBR Green PCR Kit (Qiagen). […]

[4] = highest concentration used (2 μM)

O=C1Nc2ccc3ncsc3c2/C1=C/c1c[nH]cn1 [C13H8N4OS, 6,8-dihydro-8-(1H-imidazol-5-ylmethylene)-7H-pyrrolo[2,3-g]benzothiazol-7-one]
luciferase expression ([1]; 0.5 μM to 2 μM, human fibroblasts, after electroporation): dose dependent increase
luciferase expression on additional application of inhibitor ([1]; 2 μM C13H8N4OS on CCD1079SK cotransfected with E3/K3, vs untreated controls): additive increase of luciferase expression and a stabilization
luciferase expression after transient treatment ([1]; 2 μM, 7 h incubation period): did not results in a significant increase of luciferase expression
luciferase expression after transient treatment ([1]; 2 μM, 24 h treatment): rapidly reversed after removal of the inhibitors
luciferase expression after transient treatment ([1]; 2 μM, 48 h treatment): less efficient than a permanent treatment
luciferase expression from modified (5mC and PU) IVT RNA ([1]; 2 μM, CCD1079Sk, 7 h to 72 h): further increases and stabilizes
luciferase expression from unmodified IVT-RNA ([1]; 2 μM, CCD1079Sk, 7 h to 72 h): greatly enhanced and stabilized
duration of high luciferase expression levels ([1]; 2 μM, permanent inhibition): 5 days
stabilization of luciferase expression [1, 4]: high level of stabilization
GFP expression (MFI) ([2]; 0.5 μM to 2 μM, human fibroblasts): dose dependent increase
stabilization of GFP expression [2, 4]: high level of stabilization
GFP expression (MFI) (MEFs): dose dependent increase
GFP expression (MFI) [3]: Neither in T-cells nor in iDCs PKR inhibition led to an increased GFP expression
abundance of IVT RNA (OCT4, SOX2 constructs) (CCD1079SK fibroblasts; 2 μM for 24 h or 48 h, harvested after 72 h): increased the abundance of IVT RNA for 72 h
prolongation of half life of IVT RNA constructs OCT4, SOX2, KLF4 and cMYC (Δt1/2) (CCD1079SK fibroblasts; 2 μM for 80 h, presence vs absence of C13H8N4OS): 1 to 2.5 h
